pIC50: −log10 of the molar value.
What was measured:
TNFα release = test: LPS-induced TNFα release in PMA-differentiated U937 cells (ELISA); format: cell-based, human
Experimental: Effects of macrolides on lipopolysaccharide (LPS)-induced TNFα release in PMA-differentiated U937 cells. […] LPS-induced TNFα release was evaluated by ELISA. Values represent means of three experiments±SEM. ^##p<0.01 (vs. non-treatment control), *p<0.05, **p<0.01 (vs. treatment with LPS only).
(§1) The human monocytic cell line U937 was obtained from the American Type Culture Collection (ATCC, Rockville, Md.). PBMCs from COPD patients were obtained from Brompton hospital and separated by AccuSPIN (Sigma-Aldrich). Cells were cultured in complete growth medium (RPMI 1640) (Sigma-Aldrich) supplemented with 10% fetal bovine serum (FBS) and 1% L-glutamine at 37° C. in a humidified atmosphere with 5% CO2. U937 cells were differentiated into adherent macrophage-like morphology by exposure to PMA (50 ng/mL) for 48 hrs in complete growth medium. Cell viability was assessed microscopically by trypan blue staining. Cell toxicity was determined by MTT assay as needed. This study was approved by the ethics committee of the Royal Brompton Hospitals, and all subjects gave written informed consent.
(§2) TNFα and IL-8 concentrations in the supernatant of cell cultures were determined by sandwich ELISA according to the manufacturer's instructions (R&D Systems Europe, Abingdon, UK).
(§3) The results were expressed as the mean±SEM. Comparisons of data in two groups were performed using the Student's t test or the Wilcoxon signed rank test. Multiple comparisons were made by one-way ANOVA with post hoc test (Dunnett's) as appropriate. The difference was considered significant at p<0.05. IC50 values (50% inhibitory concentration) for macrolides for production of cytokines or MMP9 were calculated using Prism 4.0 (GraphPad Software Inc., San Diego, Calif.).

IL-8 (CXCL8) release = test: LPS-induced IL-8 (CXCL8) release in PMA-differentiated U937 cells (ELISA); format: cell-based, human
Experimental: Effects of macrolides on lipopolysaccharide (LPS)-induced CXCL8 release in PMA-differentiated U937 cells. […] LPS-induced CXCL8 release was evaluated by ELISA. Values represent means of three experiments±SEM. ^##p<0.01 (vs. non-treatment control), *p<0.05, **p<0.01 (vs. treatment with LPS only).
as §1, §2, §3

P. aeruginosa PA12 = test: MIC by microdilution with PaβN or EGTA, clinical isolate overexpressing efflux pumps; format: cell-based; details: Pseudomonas aeruginosa
Experimental: (§4) MICs of 36 clinical and laboratory strains of PA with known efflux phenotype are measured by microdilution in cation-adjusted Muller-Hinton broth (CA-MHB) or in RPMI medium (commonly used in eukaryotic cell culture). Phe-Arg-β-naphthylamide (PaβN, 50 mg/L) and EGTA 5 mM are used to inhibit efflux pumps and alter OM integrity, respectively. P. aeruginosa strain ATCC PAO1 is used as reference. PA12 is a clinical strain overexpressing the 4 main efflux systems (MexAB, MexCD, MexEF, MexXY), PA403 is a laboratory strain deleted in the genes coding for the 4 efflux systems. A series of reference strains or of clinical isolates for which the expression of genes coding for efflux pumps is known is also used for MICs determinations. MICs are measured by microdilution in MH broth or in RPMI medium (used for eukaryotic cells culture) supplemented with 10% of fetal calf serum, or in MH broth supplemented by increasing amounts of serum. EGTA (5 mM) was used as a chelating agent (disrupting outer membrane integrity) and PaβN (50 mg/L) as an unspecific efflux inhibitor.

P. aeruginosa (PA) = test: MIC by microdilution, 36 clinical and laboratory strains with known efflux phenotype; format: cell-based
Experimental: as §4

[1] = at a higher concentration (333 μM)

CC[C@H]1OC(=O)[C@H](C)[C@@H](O[C@H]2C[C@@](C)(OC)[C@@H](O)[C@H](C)O2)[C@H](C)[C@@H](O[C@@H]2O[C@H](C)C[C@H](N(C)C)[C@H]2O)[C@](C)(OC)C[C@@H](C)C(=O)[C@H](C)[C@@H](O)[C@]1(C)O [CLR, clarithromycin]
64 µg/mL: MIC (P. aeruginosa (PA); strain 16, efflux AB + XY+, RPMI) | MIC (P. aeruginosa (PA); strain 21, efflux AB+, RPMI) | MIC (P. aeruginosa (PA); strain 41, efflux CD+, RPMI) | MIC (P. aeruginosa (PA); strain 48, efflux CD + EF + XY+, RPMI) | MIC (P. aeruginosa (PA); strain 68, efflux AB + XY+, RPMI) | MIC (P. aeruginosa (PA); strain 133, efflux EF + XY+, RPMI) | MIC (P. aeruginosa (PA); strain 207, efflux AB + EF + XY+, RPMI) | MIC (P. aeruginosa (PA); strain 266B, efflux AB + CD+, RPMI) | MIC (P. aeruginosa (PA); strain 333A, efflux AB + EF+, RPMI) | MIC (P. aeruginosa (PA); strain 335, efflux AB + EF+, RPMI) | MIC (P. aeruginosa (PA); strain 396, ompH−, MHB)
2 µg/mL: MIC (P. aeruginosa PA12; PA12, PA12, RPMI, EGTA 5 mM) | MIC (P. aeruginosa (PA); strain 397, efflux AB−, RPMI) | MIC (P. aeruginosa (PA); strain 401, ompH−, RPMI)
512 µg/mL: MIC (P. aeruginosa PA12; PA12, PA12, CA-MHB, control conditions (CT)) | MIC (P. aeruginosa (PA); strain 1, efflux AB+, MHB) | MIC (P. aeruginosa (PA); strain 2, efflux CD+, MHB) | MIC (P. aeruginosa (PA); strain 4, efflux XY+, MHB) | MIC (P. aeruginosa (PA); strain 11, efflux AB + CD+, MHB) | MIC (P. aeruginosa (PA); strain 12, efflux AB + CD + EF + XY+, MHB) | MIC (P. aeruginosa (PA); strain 16, efflux AB + XY+, MHB) | MIC (P. aeruginosa (PA); strain 21, efflux AB+, MHB) | MIC (P. aeruginosa (PA); strain 22, efflux XY+, MHB) | MIC (P. aeruginosa (PA); strain 41, efflux CD+, MHB) | MIC (P. aeruginosa (PA); strain 48, efflux CD + EF + XY+, MHB) | MIC (P. aeruginosa (PA); strain 49, efflux CD + EF + XY+, MHB) | MIC (P. aeruginosa (PA); strain 63, efflux AB + EF + XY+, MHB) | MIC (P. aeruginosa (PA); strain 68, efflux AB + XY+, MHB) | MIC (P. aeruginosa (PA); strain 133, efflux EF + XY+, MHB) | MIC (P. aeruginosa (PA); strain 156, efflux EF + XY+, MHB) | MIC (P. aeruginosa (PA); strain 168B, efflux CD + XY+, MHB) | MIC (P. aeruginosa (PA); strain 207, efflux AB + EF + XY+, MHB) | MIC (P. aeruginosa (PA); strain 266B, efflux AB + CD+, MHB) | MIC (P. aeruginosa (PA); strain 333A, efflux AB + EF+, MHB) | MIC (P. aeruginosa (PA); strain 335, efflux AB + EF+, MHB) | MIC (P. aeruginosa (PA); strain 394, efflux XY−, MHB) | MIC (P. aeruginosa (PA); strain 434, efflux AB + CD + XY+, MHB) | MIC (P. aeruginosa (PA); strain PAO1, REFERENCE, MHB)
3.30: pIC50 (IL-8 (CXCL8) release; PMA-differentiated U937 cells, read-out: IC50, LPS-induced IL-8 (CXCL8) release)
128 µg/mL: MIC (P. aeruginosa (PA); strain 2, efflux CD+, RPMI) | MIC (P. aeruginosa (PA); strain 434, efflux AB + CD + XY+, RPMI)
16 µg/mL: MIC (P. aeruginosa PA12; PA12, PA12, CA-MHB, PaβN 50 mg/L) | MIC (P. aeruginosa PA12; PA12, PA12, RPMI, PaβN 50 mg/L) | MIC (P. aeruginosa PA12; PA12, PA12, RPMI, control conditions (CT)) | MIC (P. aeruginosa (PA); strain 3, efflux EF+, RPMI) | MIC (P. aeruginosa (PA); strain 11, efflux AB + CD+, RPMI) | MIC (P. aeruginosa (PA); strain 12, efflux AB + CD + EF + XY+, RPMI) | MIC (P. aeruginosa (PA); strain 40, efflux EF+, RPMI) | MIC (P. aeruginosa (PA); strain 391, efflux EF−, RPMI) | MIC (P. aeruginosa (PA); strain 392, efflux CD−, RPMI) | MIC (P. aeruginosa (PA); strain 396, ompH−, RPMI) | MIC (P. aeruginosa (PA); strain 397, efflux AB−, MHB) | MIC (P. aeruginosa (PA); strain 399, efflux AB − EF−, MHB) | MIC (P. aeruginosa (PA); strain 400, efflux XY−, MHB) | MIC (P. aeruginosa (PA); strain 403, efflux AB − CD − EF − XY−, MHB)
4 µg/mL: MIC (P. aeruginosa (PA); strain 398, efflux CD−, RPMI) | MIC (P. aeruginosa (PA); strain 399, efflux AB − EF−, RPMI) | MIC (P. aeruginosa (PA); strain 400, efflux XY−, RPMI) | MIC (P. aeruginosa (PA); strain 403, efflux AB − CD − EF − XY−, RPMI) | MIC (P. aeruginosa (PA); strain 405, efflux AB − CD − EF − XY−, RPMI)
32 µg/mL: MIC (P. aeruginosa (PA); strain 1, efflux AB+, RPMI) | MIC (P. aeruginosa (PA); strain 4, efflux XY+, RPMI) | MIC (P. aeruginosa (PA); strain 22, efflux XY+, RPMI) | MIC (P. aeruginosa (PA); strain 49, efflux CD + EF + XY+, RPMI) | MIC (P. aeruginosa (PA); strain 63, efflux AB + EF + XY+, RPMI) | MIC (P. aeruginosa (PA); strain 156, efflux EF + XY+, RPMI) | MIC (P. aeruginosa (PA); strain 394, efflux XY−, RPMI) | MIC (P. aeruginosa (PA); strain 395, efflux HI−, RPMI) | MIC (P. aeruginosa (PA); strain 398, efflux CD−, MHB) | MIC (P. aeruginosa (PA); strain PAO1, REFERENCE, RPMI)
modest effects: effect on TNFα production (TNFα release; [1]) | effect on IL-8 production (IL-8 (CXCL8) release; [1])
8 µg/mL: MIC (P. aeruginosa (PA); strain 401, ompH−, MHB) | MIC (P. aeruginosa (PA); strain 405, efflux AB − CD − EF − XY−, MHB)
3.37: pIC50 (TNFα release; PMA-differentiated U937 cells, read-out: IC50, LPS-induced TNFα release)

From patent publication US9861616B2, “Methods for treating respiratory diseases and formulations therefor” (priority 2013, dated 2018)
